Measured values from patent publication US11389447B2 (Janssen Sciences Ireland Unlimited Company, priority 2006, dated 2022).
Read-outs that look alike come from different tables or passages of the source.

Experiments:
[1] = Kinetic study: plasma kinetics of TMC278 after single IM or SC injection of a nanosuspension; type: in vivo, male beagle dogs; settings: male, beagle, dog, plasma, sc, 5 mg/kg; for concentration at 0 h / concentration at 1 h / concentration at 3 h / concentration at 8 h / concentration at 24 h / concentration at 48 h / concentration at 72 h / concentration at 144 h / concentration at 192 h / concentration at 240 h / concentration at 312 h / concentration at 384 h / concentration at 480 h / concentration at 648 h / concentration at 696 h / concentration at 864 h / concentration at 1032 h / concentration at 1200 h / concentration at 1368 h / concentration at 1536 h / concentration at 1704 h / concentration at 1872 h / concentration at 2040 h / concentration at 2208 h: plasma concentration of TMC278, single SC 5 mg/kg TMC278 nanosuspension; for AUC(0-t) / Cmax / Tmax: single SC 5 mg/kg TMC278 nanosuspension; for Cmax: read-out: Cmax; for Tmax: read-out: Tmax;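 on all read-outs here: healthy male beagle dogs injected in both biceps femoris muscles (IM) or both thoracal sides (SC), total volume 0.2 mL/kg, drug measured in plasma from blood samples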
Method: Six healthy male beagle dogs with body weights ranging from 8 to 16 kg at the start of the study, were used. Each dog was identified by an ear tattoo number. Two dogs were dosed intramuscularly (IM) in the left and right m. biceps femoris (treatment group A). […] Two dogs were dosed subcutaneously (SC) in the left and right thoracal region. The injection volume was 2×0.1 ml/kg in all treatment groups. A 20 G needle was used.
Blood samples of 3 ml were taken from the left jugular vein from all dogs on day 0 at 0 h (predose), 20 min, 1 h, 3 h, 8 h and 24 h post-dose and further on days 2, 3, 6, 8, 10, 13, 16, 20, 23, 27, 29, 36, 43, 50, 57, 64, 71, 78, 85 and 92 at approximately 8 AM. Blood samples were placed on EDTA, EDTA Vacuette Greiner, Cat. No. 454086, Greiner Labortechnik N.V.). Within 2 h of blood sampling, samples were centrifuged at room temperature at about 1900×g for 10 minutes to allow plasma separation. Plasma was immediately transferred into a second tube and stored in the freezer within 2 hours after the start of centrifugation.

wild type HIV = settings: cited from earlier work
mutated variants of HIV = settings: many of its mutated variants; cited from earlier work

Cc1cc(C=CC#N)cc(C)c1Nc1ccnc(Nc2ccc(C#N)cc2)n1 [TMC278, 4-[[4-[[4-(2-cyanoethenyl)-2,6-dimethylphenyl]amino]-2-pyrimidinyl]amino]benzonitrile]
concentration at 0 h ([1]; dog 19129, 0 h (d0, predose)): < 1 ng/mL
concentration at 1 h ([1]; dog 19129, 1 h): 1.62 ng/mL
concentration at 3 h ([1]; dog 19129, 3 h): 7.96 ng/mL
concentration at 8 h ([1]; dog 19129, 8 h): 27.6 ng/mL
concentration at 24 h ([1]; dog 19129, 24 h (d1)): 15.7 ng/mL
concentration at 48 h ([1]; dog 19129, 48 h (d2)): 34.8 ng/mL
concentration at 72 h ([1]; dog 19129, 72 h (d3)): 26.1 ng/mL
concentration at 144 h ([1]; dog 19129, 144 h (d6)): 18.9 ng/mL
concentration at 192 h ([1]; dog 19129, 192 h (d8)): 17.7 ng/mL
concentration at 240 h ([1]; dog 19129, 240 h (d10)): 24.3 ng/mL
concentration at 312 h ([1]; dog 19129, 312 h (d13)): 21.7 ng/mL
concentration at 384 h ([1]; dog 19129, 384 h (d16)): 21.7 ng/mL
concentration at 480 h ([1]; dog 19129, 480 h (d20)): 29.8 ng/mL
concentration at 648 h ([1]; dog 19129, 648 h (d27)): 19 ng/mL
concentration at 696 h ([1]; dog 19129, 696 h (d29)): 21 ng/mL
concentration at 864 h ([1]; dog 19129, 864 h (d36)): 12.7 ng/mL
concentration at 1032 h ([1]; dog 19129, 1032 h (d43)): 5.22 ng/mL
concentration at 1200 h ([1]; dog 19129, 1200 h (d50)): 6.37 ng/mL
concentration at 1368 h ([1]; dog 19129, 1368 h (d57)): 4.78 ng/mL
concentration at 1536 h ([1]; dog 19129, 1536 h (d64)): 6.45 ng/mL
concentration at 1704 h ([1]; dog 19129, 1704 h (d71)): 3.96 ng/mL
concentration at 1872 h ([1]; dog 19129, 1872 h (d78)): 3.66 ng/mL
concentration at 2040 h ([1]; dog 19129, 2040 h (d85)): 8.6 ng/mL
concentration at 2208 h ([1]; dog 19129, 2208 h (d92)): 3.05 ng/mL
concentration at 0 h ([1]; dog 19349, 0 h (d0, predose)): < 1 ng/mL
concentration at 1 h ([1]; dog 19349, 1 h): 1.37 ng/mL
concentration at 3 h ([1]; dog 19349, 3 h): 8.42 ng/mL
concentration at 8 h ([1]; dog 19349, 8 h): 13.8 ng/mL
concentration at 24 h ([1]; dog 19349, 24 h (d1)): 28.5 ng/mL
concentration at 48 h ([1]; dog 19349, 48 h (d2)): 29.1 ng/mL
concentration at 72 h ([1]; dog 19349, 72 h (d3)): 30.6 ng/mL
concentration at 144 h ([1]; dog 19349, 144 h (d6)): 32.7 ng/mL
concentration at 192 h ([1]; dog 19349, 192 h (d8)): 23 ng/mL
concentration at 240 h ([1]; dog 19349, 240 h (d10)): 42 ng/mL
concentration at 312 h ([1]; dog 19349, 312 h (d13)): 38.8 ng/mL
concentration at 384 h ([1]; dog 19349, 384 h (d16)): 16.6 ng/mL
concentration at 480 h ([1]; dog 19349, 480 h (d20)): 21.2 ng/mL
concentration at 648 h ([1]; dog 19349, 648 h (d27)): 11 ng/mL
concentration at 696 h ([1]; dog 19349, 696 h (d29)): 10.5 ng/mL
concentration at 864 h ([1]; dog 19349, 864 h (d36)): 5.49 ng/mL
concentration at 1032 h ([1]; dog 19349, 1032 h (d43)): 6.03 ng/mL
concentration at 1200 h ([1]; dog 19349, 1200 h (d50)): 3.4 ng/mL
concentration at 1368 h ([1]; dog 19349, 1368 h (d57)): 2.52 ng/mL
concentration at 1536 h ([1]; dog 19349, 1536 h (d64)): 2.05 ng/mL
concentration at 1704 h ([1]; dog 19349, 1704 h (d71)): 3.57 ng/mL
concentration at 1872 h ([1]; dog 19349, 1872 h (d78)): 1.91 ng/mL
concentration at 2040 h ([1]; dog 19349, 2040 h (d85)): 2.82 ng/mL
concentration at 2208 h ([1]; dog 19349, 2208 h (d92)): 2.49 ng/mL
concentration at 0 h ([1]; mean of 2 dogs, 0 h (d0, predose)): < 1 ng/mL
concentration at 1 h ([1]; mean of 2 dogs, 1 h): 1.5 ng/mL
concentration at 3 h ([1]; mean of 2 dogs, 3 h): 8.19 ng/mL
concentration at 8 h ([1]; mean of 2 dogs, 8 h): 20.7 ng/mL
concentration at 24 h ([1]; mean of 2 dogs, 24 h (d1)): 22.1 ng/mL
concentration at 48 h ([1]; mean of 2 dogs, 48 h (d2)): 32 ng/mL
concentration at 72 h ([1]; mean of 2 dogs, 72 h (d3)): 28.4 ng/mL
concentration at 144 h ([1]; mean of 2 dogs, 144 h (d6)): 25.8 ng/mL
concentration at 192 h ([1]; mean of 2 dogs, 192 h (d8)): 20.4 ng/mL
concentration at 240 h ([1]; mean of 2 dogs, 240 h (d10)): 33.2 ng/mL
concentration at 312 h ([1]; mean of 2 dogs, 312 h (d13)): 30.3 ng/mL
concentration at 384 h ([1]; mean of 2 dogs, 384 h (d16)): 19.2 ng/mL
concentration at 480 h ([1]; mean of 2 dogs, 480 h (d20)): 25.5 ng/mL
concentration at 648 h ([1]; mean of 2 dogs, 648 h (d27)): 15 ng/mL
concentration at 696 h ([1]; mean of 2 dogs, 696 h (d29)): 15.8 ng/mL
concentration at 864 h ([1]; mean of 2 dogs, 864 h (d36)): 9.1 ng/mL
concentration at 1032 h ([1]; mean of 2 dogs, 1032 h (d43)): 5.63 ng/mL
concentration at 1200 h ([1]; mean of 2 dogs, 1200 h (d50)): 4.89 ng/mL
concentration at 1368 h ([1]; mean of 2 dogs, 1368 h (d57)): 3.65 ng/mL
concentration at 1536 h ([1]; mean of 2 dogs, 1536 h (d64)): 4.25 ng/mL
concentration at 1704 h ([1]; mean of 2 dogs, 1704 h (d71)): 3.77 ng/mL
concentration at 1872 h ([1]; mean of 2 dogs, 1872 h (d78)): 2.79 ng/mL
concentration at 2040 h ([1]; mean of 2 dogs, 2040 h (d85)): 5.71 ng/mL
concentration at 2208 h ([1]; mean of 2 dogs, 2208 h (d92)): 2.77 ng/mL
AUC(0-t) ([1]; dog 19129, read-out: AUC0-312 h): 6910 ng·h/mL
AUC(0-t) ([1]; dog 19129, read-out: AUC0-696 h): 15900 ng·h/mL
AUC(0-t) ([1]; dog 19129, read-out: AUC0-2208 h): 26400 ng·h/mL
Cmax ([1]; dog 19129): 34.8 ng/mL
Tmax ([1]; dog 19129): 48 h
AUC(0-t) ([1]; dog 19349, read-out: AUC0-312 h): 9880 ng·h/mL
AUC(0-t) ([1]; dog 19349, read-out: AUC0-696 h): 16700 ng·h/mL
AUC(0-t) ([1]; dog 19349, read-out: AUC0-2208 h): 22400 ng·h/mL
Tmax ([1]; dog 19349): 240 h
AUC(0-t) ([1]; mean of 2 dogs, read-out: AUC0-312 h): 8400 ng·h/mL
AUC(0-t) ([1]; mean of 2 dogs, read-out: AUC0-696 h): 16300 ng·h/mL
AUC(0-t) ([1]; mean of 2 dogs, read-out: AUC0-2208 h): 24400 ng·h/mL
Cmax ([1]; mean of 2 dogs): 38.4 ng/mL
Tmax ([1]; mean of 2 dogs): 144 h
activity against wild type HIV (in words) (wild type HIV): pronounced activity
activity against mutated variants of HIV (in words) (mutated variants of HIV): pronounced activity
